pEC50: −log10 of the molar value.

The target of one test is T1, human F508del CFTR (Homo sapiens, UniProt P13569, DEL508-508).
T1 construct: expressed in transfected cells
T1 sequence (P13569 with tags, fused parts or gaps DEL508-508): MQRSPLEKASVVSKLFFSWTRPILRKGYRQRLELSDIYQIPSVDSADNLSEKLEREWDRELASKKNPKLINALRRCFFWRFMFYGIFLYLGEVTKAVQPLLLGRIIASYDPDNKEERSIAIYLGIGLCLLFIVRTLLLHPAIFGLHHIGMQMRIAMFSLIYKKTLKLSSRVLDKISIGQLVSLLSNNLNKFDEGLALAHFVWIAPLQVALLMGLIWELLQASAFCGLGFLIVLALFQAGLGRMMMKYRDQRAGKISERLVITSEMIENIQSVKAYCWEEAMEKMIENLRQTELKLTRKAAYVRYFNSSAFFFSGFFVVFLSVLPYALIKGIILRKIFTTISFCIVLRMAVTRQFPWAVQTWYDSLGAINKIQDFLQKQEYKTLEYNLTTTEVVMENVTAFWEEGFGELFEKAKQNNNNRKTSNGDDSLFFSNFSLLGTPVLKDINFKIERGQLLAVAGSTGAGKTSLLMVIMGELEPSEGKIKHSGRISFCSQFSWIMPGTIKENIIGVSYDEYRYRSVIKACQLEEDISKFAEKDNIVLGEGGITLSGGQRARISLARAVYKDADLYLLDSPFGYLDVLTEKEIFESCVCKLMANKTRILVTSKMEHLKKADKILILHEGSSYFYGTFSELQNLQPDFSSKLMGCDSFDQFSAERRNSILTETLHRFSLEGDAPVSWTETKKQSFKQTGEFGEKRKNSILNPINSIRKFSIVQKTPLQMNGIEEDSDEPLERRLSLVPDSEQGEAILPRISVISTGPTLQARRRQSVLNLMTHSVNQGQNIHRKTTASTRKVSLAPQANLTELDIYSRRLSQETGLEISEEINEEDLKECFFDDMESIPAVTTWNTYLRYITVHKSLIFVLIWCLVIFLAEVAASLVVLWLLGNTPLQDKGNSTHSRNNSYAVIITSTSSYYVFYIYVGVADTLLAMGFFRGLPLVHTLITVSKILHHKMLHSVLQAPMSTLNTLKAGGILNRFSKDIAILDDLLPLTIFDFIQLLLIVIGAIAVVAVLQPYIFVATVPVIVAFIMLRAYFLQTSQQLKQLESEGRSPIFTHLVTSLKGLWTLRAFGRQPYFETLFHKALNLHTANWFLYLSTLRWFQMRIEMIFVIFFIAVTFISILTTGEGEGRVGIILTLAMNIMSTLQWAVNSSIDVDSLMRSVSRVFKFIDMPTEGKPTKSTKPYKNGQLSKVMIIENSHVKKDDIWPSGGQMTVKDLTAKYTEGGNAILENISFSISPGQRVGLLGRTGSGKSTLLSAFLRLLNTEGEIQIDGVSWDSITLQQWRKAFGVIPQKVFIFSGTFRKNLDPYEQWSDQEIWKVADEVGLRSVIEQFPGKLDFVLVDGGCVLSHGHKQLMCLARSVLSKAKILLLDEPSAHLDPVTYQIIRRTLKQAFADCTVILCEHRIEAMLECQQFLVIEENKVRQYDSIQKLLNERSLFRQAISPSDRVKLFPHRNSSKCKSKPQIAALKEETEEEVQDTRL
Description: CFTR-YFP Assay, CFTR Corrector Protocol (YFP flux assay). Type of test: cell-based.
Settings: not given
Take `O=S(=O)(c1ccc2c(c1)OCO2)N1CCC(n2c(-c3ncccc3Cl)nc3cccnc32)CC1` [Example 93]: the pEC50 is > 5.00.

As for `O=S(=O)(c1cccc(OC(F)F)c1)N1CCC(n2c(-c3ccncc3Cl)nc3cccnc32)CC1` [Example 94], the pEC50 was > 5.00.

In the case of `Cc1ccc(S(=O)(=O)N2CCC(n3c(-c4ccncc4Cl)nc4cccnc43)CC2)cc1C#N` [Example 95], the pEC50 is 4.70 to 5.00.

With `Cc1ccc(S(=O)(=O)N2CCC(n3c(-c4ccccc4Cl)nc4cccnc43)CC2)cc1C#N` [Example 96], the pEC50 was > 5.00.

Turning to `Cc1ccc2nc(-c3ccccc3)n(C3CCN(S(=O)(=O)c4ccc5c(c4)OC(F)(F)O5)CC3)c2n1` [Example 97], the pEC50 was > 5.00.

Consider `COc1ccc(S(=O)(=O)N2CCC(n3c(-c4ccccc4)cc4cccnc43)CC2)cc1Cl` [Example 98], for which the pEC50 was > 5.00.

In the case of `O=S(=O)(c1ccc2c(c1)OC(F)(F)O2)N1CCC(n2c(-c3ccccc3)cc3cccnc32)CC1` [Example 99], the pEC50 is > 5.00.

For `O=S(=O)(c1ccc2c(c1)OCO2)N1CCC(n2c(-c3ccccc3C(F)(F)F)nc3cccnc32)CC1` [Example 100], the pEC50 was > 5.00.

Take `Cc1ccc2nc(-c3cccnc3Cl)n(C3CCN(S(=O)(=O)c4ccc5c(c4)OCO5)CC3)c2n1` [Example 101]: the pEC50 was > 5.00.

For the molecule `O=S(=O)(c1ccc2c(c1)OC(F)(F)O2)N1CCC(n2c(-c3cccnc3Cl)nc3cccnc32)CC1` [Example 102], the pEC50 is > 5.00.

Take `COc1ccc(S(=O)(=O)N2CCC(n3c(-c4ccccc4)cc4ccccc43)CC2)cc1Cl` [Example 103]: the pEC50 was > 5.00.

On to `O=S(=O)(c1ccc2c(c1)OC(F)(F)O2)N1CCC(n2c(-c3ccccc3)cc3ccccc32)CC1` [Example 104], for which the pEC50 is > 5.00.

For `O=S(=O)(c1ccc2c(c1)OCO2)N1CCC(n2c(-c3ccc(F)nc3F)nc3cccnc32)CC1` [Example 105], the pEC50 was > 5.00.

On to `O=S(=O)(c1ccc2c(c1)OC(F)(F)O2)N1CCC(n2c(-c3ccc(F)nc3F)nc3cccnc32)CC1` [Example 106], for which the pEC50 is > 5.00.

As for `O=S(=O)(c1ccc2c(c1)OCO2)N1CCC(n2c(-c3ccncc3F)nc3cccnc32)CC1` [Example 107], the negative logarithm of the EC50 (pEC50) was > 5.00.

On to `O=S(=O)(c1ccc2c(c1)OCO2)N1CCC(n2c(-c3ccc(F)cc3F)nc3cccnc32)CC1` [Example 108], for which the pEC50 is > 5.00.

`O=S(=O)(c1ccc2c(c1)OC(F)(F)O2)N1CCC(n2c(-c3ccc(F)cc3F)nc3cccnc32)CC1` [Example 109]: the pEC50 is > 5.00.

On to `CCc1ccc(S(=O)(=O)N2CCC(n3c(-c4ccncc4F)nc4cccnc43)CC2)cc1` [Example 110], for which the pEC50 was > 5.00.

In the case of `CCc1ccc(S(=O)(=O)N2CCC(n3c(-c4ccc(F)nc4F)nc4cccnc43)CC2)cc1` [Example 111], the pEC50 was > 5.00.

For the molecule `Cc1ccc2nc(-c3ccncc3F)n(C3CCN(S(=O)(=O)c4ccc5c(c4)OC(F)(F)O5)CC3)c2n1` [Example 112], the pEC50 is > 5.00.

For `CCc1ccc(S(=O)(=O)N2CCC(n3c(-c4ccncc4F)nc4ccc(C)nc43)CC2)cc1` [Example 113], the pEC50 is > 5.00.

Regarding `Cc1ccc2nc(-c3ccncn3)n(C3CCN(S(=O)(=O)c4ccc5c(c4)OC(F)(F)O5)CC3)c2n1` [Example 114], the pEC50 is > 5.00.

As to `CCc1ccc(S(=O)(=O)N2CCC(n3c(-c4ccncn4)nc4ccc(C)nc43)CC2)cc1` [Example 115], the pEC50 is > 5.00.

In the case of `O=S(=O)(c1ccc2c(c1)OC(F)(F)O2)N1CCC(n2c(-c3ccncc3F)nc3ncccc32)CC1` [Example 116], the pEC50 was > 5.00.

`O=S(=O)(c1ccc2c(c1)CCO2)N1CCC(n2c(-c3ccncc3F)nc3cccnc32)CC1` [Example 117]: the pEC50 was > 5.00.

As for `COc1ccc2nc(-c3ccncc3Cl)n(C3CCN(S(=O)(=O)c4ccc5c(c4)OC(F)(F)O5)CC3)c2n1` [Example 118], the pEC50 was > 5.00.

The same test, now with this note: normalized to the positive control, read-out: EMAX (% Efficacy, EMAX normalized to the positive control).
Turning to `O=S(=O)(c1ccc2c(c1)OCO2)N1CCC(n2c(-c3ncccc3Cl)nc3cccnc32)CC1` [Example 93], the Emax is 30 to 80%.

Consider `O=S(=O)(c1cccc(OC(F)F)c1)N1CCC(n2c(-c3ccncc3Cl)nc3cccnc32)CC1` [Example 94], for which the Emax is 10 to 30%.

Regarding `Cc1ccc(S(=O)(=O)N2CCC(n3c(-c4ccncc4Cl)nc4cccnc43)CC2)cc1C#N` [Example 95], the Emax fell in the range of 10 to 30%.

Take `Cc1ccc(S(=O)(=O)N2CCC(n3c(-c4ccccc4Cl)nc4cccnc43)CC2)cc1C#N` [Example 96]: the Emax fell in the range of 30 to 80%.

Regarding `Cc1ccc2nc(-c3ccccc3)n(C3CCN(S(=O)(=O)c4ccc5c(c4)OC(F)(F)O5)CC3)c2n1` [Example 97], the Emax was 30 to 80%.

As for `COc1ccc(S(=O)(=O)N2CCC(n3c(-c4ccccc4)cc4cccnc43)CC2)cc1Cl` [Example 98], the Emax lay within 10 to 30%.

Turning to `O=S(=O)(c1ccc2c(c1)OC(F)(F)O2)N1CCC(n2c(-c3ccccc3)cc3cccnc32)CC1` [Example 99], the Emax fell in the range of 30 to 80%.

Consider `O=S(=O)(c1ccc2c(c1)OCO2)N1CCC(n2c(-c3ccccc3C(F)(F)F)nc3cccnc32)CC1` [Example 100], for which the Emax was 10 to 30%.

On to `Cc1ccc2nc(-c3cccnc3Cl)n(C3CCN(S(=O)(=O)c4ccc5c(c4)OCO5)CC3)c2n1` [Example 101], for which the Emax fell in the range of 10 to 30%.

As to `O=S(=O)(c1ccc2c(c1)OC(F)(F)O2)N1CCC(n2c(-c3cccnc3Cl)nc3cccnc32)CC1` [Example 102], the Emax fell in the range of 30 to 80%.

`COc1ccc(S(=O)(=O)N2CCC(n3c(-c4ccccc4)cc4ccccc43)CC2)cc1Cl` [Example 103]: the Emax fell in the range of 10 to 30%.

`O=S(=O)(c1ccc2c(c1)OC(F)(F)O2)N1CCC(n2c(-c3ccccc3)cc3ccccc32)CC1` [Example 104]: the Emax fell in the range of 30 to 80%.

Regarding `O=S(=O)(c1ccc2c(c1)OCO2)N1CCC(n2c(-c3ccc(F)nc3F)nc3cccnc32)CC1` [Example 105], the Emax is 30 to 80%.

Turning to `O=S(=O)(c1ccc2c(c1)OC(F)(F)O2)N1CCC(n2c(-c3ccc(F)nc3F)nc3cccnc32)CC1` [Example 106], the Emax was 10 to 30%.

On to `O=S(=O)(c1ccc2c(c1)OCO2)N1CCC(n2c(-c3ccncc3F)nc3cccnc32)CC1` [Example 107], for which the Emax is 30 to 80%.

Regarding `O=S(=O)(c1ccc2c(c1)OCO2)N1CCC(n2c(-c3ccc(F)cc3F)nc3cccnc32)CC1` [Example 108], the Emax is 30 to 80%.

For the molecule `O=S(=O)(c1ccc2c(c1)OC(F)(F)O2)N1CCC(n2c(-c3ccc(F)cc3F)nc3cccnc32)CC1` [Example 109], the Emax lay in the range of 30 to 80%.

In the case of `CCc1ccc(S(=O)(=O)N2CCC(n3c(-c4ccncc4F)nc4cccnc43)CC2)cc1` [Example 110], the Emax was 30 to 80%.

As for `CCc1ccc(S(=O)(=O)N2CCC(n3c(-c4ccc(F)nc4F)nc4cccnc43)CC2)cc1` [Example 111], the Emax lay within 30 to 80%.

As for `Cc1ccc2nc(-c3ccncc3F)n(C3CCN(S(=O)(=O)c4ccc5c(c4)OC(F)(F)O5)CC3)c2n1` [Example 112], the Emax was > 80%.

As for `CCc1ccc(S(=O)(=O)N2CCC(n3c(-c4ccncc4F)nc4ccc(C)nc43)CC2)cc1` [Example 113], the Emax lay within 30 to 80%.

For `Cc1ccc2nc(-c3ccncn3)n(C3CCN(S(=O)(=O)c4ccc5c(c4)OC(F)(F)O5)CC3)c2n1` [Example 114], the Emax lay within 30 to 80%.

For the molecule `CCc1ccc(S(=O)(=O)N2CCC(n3c(-c4ccncn4)nc4ccc(C)nc43)CC2)cc1` [Example 115], the Emax is 30 to 80%.

`O=S(=O)(c1ccc2c(c1)OC(F)(F)O2)N1CCC(n2c(-c3ccncc3F)nc3ncccc32)CC1` [Example 116]: the Emax is > 80%.

With `O=S(=O)(c1ccc2c(c1)CCO2)N1CCC(n2c(-c3ccncc3F)nc3cccnc32)CC1` [Example 117], the Emax was in the range of 30 to 80%.

As to `COc1ccc2nc(-c3ccncc3Cl)n(C3CCN(S(=O)(=O)c4ccc5c(c4)OC(F)(F)O5)CC3)c2n1` [Example 118], the Emax is 30 to 80%.

The pEC50 is the negative decadic logarithm of the EC50, by convention in mol/L. A high value points to a low EC50. What is called Emax is the greatest response seen or fitted, relative to the assay's reference.
